From US20250195521A1 (Revolution Medicines, Inc., priority 2020, published 2025)

Columns and labels:
[1] = target: KRAS G13D (Homo sapiens (Human), UniProt P01116+P62937, G13D); assay: Ras-Raf disruption/FRET/MOA assay (BRAF RBD, Cyclophilin A); format: biochemical; conditions: read-out: KRAS G13D FRET data IC50
In short: (§1)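 His6-K-Ras-GMPPNP (12.5 nM), GST-BRAF RBD (50 nM) and tagless Cyclophilin A (25 μM) were combined in 25 mM HEPES pH 7.3 with 100 mM NaCl, 5 mM MgCl2, 0.1% BSA and 0.002% Tween20, with compound as a 10-point 3-fold series from 30 μM final, then incubated 3 h at 25° C.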

[2] = target: KRAS WT (Homo sapiens (Human), UniProt P01116+P62937); assay: as above; format: biochemical; conditions: read-out: KRAS WT FRET data IC50
In short: as §1

[3] = target: KRAS G12C (Homo sapiens (Human), UniProt P01116+P62937, G12C); assay: as above; format: biochemical; conditions: read-out: KRAS G12C FRET IC50
In short: as §1

[4] = target: KRAS G13C (Homo sapiens (Human), UniProt P01116+P62937, G13C); assay: as above; format: biochemical; conditions: read-out: KRAS G13C FRET IC50
In short: as §1

[5] = target: KRAS G12D (Homo sapiens (Human), UniProt P01116+P62937, G12D); assay: as above; format: biochemical; conditions: read-out: KRAS G12D FRET IC50
In short: as §1

[6] = target: KRAS G12V (Homo sapiens (Human), UniProt P01116+P62937, G12V); assay: as above; format: biochemical; conditions: read-out: KRAS G12V FRET IC50
In short: as §1

[7] = target: NRAS G12C (Homo sapiens (Human), UniProt P01111+P62937, G12C); assay: as above; format: biochemical; conditions: read-out: NRAS G12C FRET data IC50
In short: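 Ras-GMPPNP (12.5 nM), BRAF RBD (50 nM) and 25 μM Cyclophilin A were incubated with compound for 3 h at 25° C, then detected 1.5 h with anti-His Eu and anti-GST APC; IC50 values follow from the reduced TR-FRET ratio.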

[8] = target: KRAS G12S (Homo sapiens (Human), UniProt P01116+P62937, G12S); assay: as above; format: biochemical; conditions: read-out: KRAS G12S FRET IC50
In short: as §1

[9] = test system: NCI-H358 cells (K-Ras G12C); assay: CellTiter-Glo cell viability, NCI-H358; format: cell-based, human; conditions: Homo sapiens, NCI-H358, 120 h, K-Ras G12C, 5-day treatment; read-out: H358 Cell Viability IC50
Procedure: Note—The following protocol describes a procedure for monitoring cell viability of K-Ras mutant cancer cell lines in response to a compound of the invention. Other RAS isoforms may be employed, though the number of cells to be seeded will vary based on cell line used.
Test compounds (132.5 nl) were directly dispensed into the assay plates containing cells. […] On day 5, assay plates and their contents were equilibrated to room temperature for approximately 30 minutes. […] Luminescence was measured using the PerkinElmer Enspire. Data were normalized by the following: (Sample signal/Avg. DMSO)*100. The data were fit using a four-parameter logistic fit.

[10] = test system: K-Ras G12C (NCI-H358 cells); assay: Potency assay: pERK in NCI-H358 cells; format: cell-based, human; conditions: Homo sapiens; NCI-H358 cells, 4 hours; read-out: pERK EC50 (H358 KRAS G12C)
In short: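 Cells plated the day before were exposed for 4 h at 37° C, 5% CO2 to a 10-point, 3-fold DMSO dilution series (10 mM top stock), in duplicate. Phospho-ERK was read by AlphaLISA SureFire Ultra or by In-Cell Western with DRAQ5 DNA stain, and IC50 came from a 4-parameter sigmoidal fit.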

Chain of KRAS G12V (P01116 other isoform, or with tags, fused parts or gaps G12V): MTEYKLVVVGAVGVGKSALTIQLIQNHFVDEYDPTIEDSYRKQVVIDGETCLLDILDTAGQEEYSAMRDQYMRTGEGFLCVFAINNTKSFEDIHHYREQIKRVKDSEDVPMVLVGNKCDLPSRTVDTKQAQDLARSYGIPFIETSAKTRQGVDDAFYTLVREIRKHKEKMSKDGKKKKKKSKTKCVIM
Chain of KRAS G12V (P62937 whole entry): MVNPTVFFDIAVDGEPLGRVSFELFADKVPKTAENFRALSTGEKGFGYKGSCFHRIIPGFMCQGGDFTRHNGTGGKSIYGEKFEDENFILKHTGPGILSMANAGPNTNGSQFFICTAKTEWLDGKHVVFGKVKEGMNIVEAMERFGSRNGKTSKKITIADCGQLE
Chain of KRAS G13D (P01116 other isoform, or with tags, fused parts or gaps G13D): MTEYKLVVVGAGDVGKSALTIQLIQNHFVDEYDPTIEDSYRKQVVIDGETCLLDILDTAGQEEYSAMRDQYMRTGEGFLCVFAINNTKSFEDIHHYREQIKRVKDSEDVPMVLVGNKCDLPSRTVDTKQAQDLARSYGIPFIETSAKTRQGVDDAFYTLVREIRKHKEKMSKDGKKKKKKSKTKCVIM
Chain of KRAS G13D (P62937 whole entry): as the sequence (P62937 whole entry) above
Chain of NRAS G12C (P01111 whole entry G12C): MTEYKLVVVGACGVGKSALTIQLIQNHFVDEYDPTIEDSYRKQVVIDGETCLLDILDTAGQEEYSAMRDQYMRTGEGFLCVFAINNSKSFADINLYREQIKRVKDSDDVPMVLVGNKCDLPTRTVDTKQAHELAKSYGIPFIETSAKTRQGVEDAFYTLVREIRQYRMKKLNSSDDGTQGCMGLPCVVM
Chain of NRAS G12C (P62937 whole entry): as the sequence (P62937 whole entry) above
Chain of KRAS G12S (P01116 other isoform, or with tags, fused parts or gaps G12S): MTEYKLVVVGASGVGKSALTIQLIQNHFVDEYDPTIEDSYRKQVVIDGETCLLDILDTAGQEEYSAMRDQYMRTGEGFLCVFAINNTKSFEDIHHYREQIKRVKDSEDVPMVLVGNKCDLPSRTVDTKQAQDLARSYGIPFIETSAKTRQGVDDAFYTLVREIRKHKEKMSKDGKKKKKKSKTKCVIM
Chain of KRAS G12S (P62937 whole entry): as the sequence (P62937 whole entry) above
Chain of KRAS G12C (P01116-2 other isoform, or with tags, fused parts or gaps G12C): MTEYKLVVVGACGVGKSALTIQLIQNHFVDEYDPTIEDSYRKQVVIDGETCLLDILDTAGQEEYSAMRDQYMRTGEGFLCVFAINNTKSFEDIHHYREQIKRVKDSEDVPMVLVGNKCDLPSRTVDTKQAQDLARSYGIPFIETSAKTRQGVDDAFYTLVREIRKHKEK
Chain of KRAS G12C (P62937 whole entry): as the sequence (P62937 whole entry) above
Chain of KRAS G12D (P01116 other isoform, or with tags, fused parts or gaps G12D): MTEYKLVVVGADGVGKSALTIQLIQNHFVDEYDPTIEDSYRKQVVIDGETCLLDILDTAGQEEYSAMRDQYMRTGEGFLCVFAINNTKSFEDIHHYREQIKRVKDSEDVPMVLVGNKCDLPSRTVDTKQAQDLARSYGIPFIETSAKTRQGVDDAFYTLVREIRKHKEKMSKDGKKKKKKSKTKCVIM
Chain of KRAS G12D (P62937 whole entry): as the sequence (P62937 whole entry) above
Chain of KRAS WT (P01116 other isoform, or with tags, fused parts or gaps): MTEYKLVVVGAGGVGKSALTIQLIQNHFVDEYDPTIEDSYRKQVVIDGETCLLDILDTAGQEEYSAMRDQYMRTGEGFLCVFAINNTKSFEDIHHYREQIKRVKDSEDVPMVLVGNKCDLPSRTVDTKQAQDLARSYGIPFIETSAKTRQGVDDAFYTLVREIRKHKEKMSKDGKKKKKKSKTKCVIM
Chain of KRAS WT (P62937 whole entry): as the sequence (P62937 whole entry) above
Chain of KRAS G13C (P01116 other isoform, or with tags, fused parts or gaps G13C): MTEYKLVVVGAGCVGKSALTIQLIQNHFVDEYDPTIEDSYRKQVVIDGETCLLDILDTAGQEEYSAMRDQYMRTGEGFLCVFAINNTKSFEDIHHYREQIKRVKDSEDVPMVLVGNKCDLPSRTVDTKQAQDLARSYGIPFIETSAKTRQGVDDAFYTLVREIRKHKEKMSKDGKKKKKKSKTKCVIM
Chain of KRAS G13C (P62937 whole entry): as the sequence (P62937 whole entry) above

In the case of `CCn1c(-c2cnccc2COC)c2c3cc(ccc31)-c1cc(O)cc(c1)C[C@H](NC(=O)[C@H](C(C)C)N(C)C(=O)[C@H]1CCN(C(=O)C(C)(C)N)C1)C(=O)N1CCC[C@H](N1)C(=O)OCC(C)(C)C2` [Compound A15], the IC50 [1] is reported as 0.1 to 1 µM, the IC50 [2] is reported as 0.1 to 1 µM and the IC50 [3] is reported as 0.01 to 0.1 µM. It also gave an IC50 [4] of 0.1 to 1 µM, an IC50 [5] of 0.1 to 1 µM and an IC50 [6] of 0.1 to 1 µM. The IC50 [7] was 0.1 to 1 µM, the IC50 [8] was 0.1 to 1 µM and the IC50 [9] was 1 to 10 µM.

In the case of `CCn1c(-c2cnccc2COC)c2c3cc(ccc31)-c1cc(O)cc(c1)C[C@H](NC(=O)[C@H](C(C)C)N(C)C(=O)N1CCN(C)CC1)C(=O)N1CCC[C@H](N1)C(=O)OCC(C)(C)C2` [Compound A46], the IC50 [1] is reported as 0.1 to 1 µM, the IC50 [2] is reported as 0.1 to 1 µM and the IC50 [3] is reported as 0.1 to 1 µM. For the same compound, the IC50 [4] was 0.1 to 1 µM, the IC50 [5] was 1 to 10 µM and the IC50 [6] was 1 to 10 µM. The IC50 [7] was 0.1 to 1 µM, the IC50 [8] was 0.1 to 1 µM and the IC50 [9] was 1 to 10 µM.

With `CCn1c(-c2cnccc2COC)c2c3cc(ccc31)-c1cc(O)cc(c1)C[C@H](NC(=O)[C@H](C(C)C)N(C)C(=O)[C@H]1CCN(C3COC3)C1)C(=O)N1CCC[C@H](N1)C(=O)OCC(C)(C)C2` [Compound A51] the EC50 [10] was < 5 µM, the IC50 [1] was 0.1 to 1 µM and the IC50 [2] was 0.1 to 1 µM. It also gave an IC50 [3] of 0.1 to 1 µM, an IC50 [4] of 0.1 to 1 µM and an IC50 [5] of 1 to 10 µM. For the same compound, the IC50 [6] was 1 to 10 µM, the IC50 [7] was 1 to 10 µM and the IC50 [8] was 0.1 to 1 µM. For the same compound, the IC50 [9] was 1 to 10 µM.

`CCn1c(-c2cnccc2COC)c2c3cc(ccc31)-c1cc(O)cc(c1)C[C@H](NC(=O)[C@H](C(C)C)N(C)c1ncco1)C(=O)N1CCC[C@H](N1)C(=O)OCC(C)(C)C2` [Compound A52] was tested, and the IC50 [1] was 1 to 10 µM, the IC50 [2] was 1 to 10 µM and the IC50 [3] was 0.1 to 1 µM. The IC50 [4] was 1 to 10 µM, the IC50 [5] was > 10 µM and the IC50 [6] was 1 to 10 µM. The IC50 [7] was 1 to 10 µM, the IC50 [8] was 1 to 10 µM and the IC50 [9] was 1 to 10 µM.

With `CCn1c(-c2cnccc2COC)c2c3cc(ccc31)-c1cc(O)cc(c1)C[C@H](NC(=O)[C@@H](NC(=O)c1ncco1)C(C)C)C(=O)N1CCC[C@H](N1)C(=O)OCC(C)(C)C2` [Compound A56] the EC50 [10] was < 5 µM, the IC50 [1] was 1 to 10 µM and the IC50 [2] was 1 to 10 µM. For the same compound, the IC50 [3] was 1 to 10 µM, the IC50 [4] was 1 to 10 µM and the IC50 [5] was > 10 µM. The IC50 [6] was 1 to 10 µM, the IC50 [7] was 1 to 10 µM and the IC50 [8] was 1 to 10 µM. For the same compound, the IC50 [9] was > 10 µM.

`CCn1c(-c2cnccc2COC)c2c3cc(ccc31)-c1cc(O)cc(c1)C[C@H](NC(=O)[C@@H](OC(=O)N1CCCC1)C(C)C)C(=O)N1CCC[C@H](N1)C(=O)OCC(C)(C)C2` [Compound A59] gave an IC50 [1] of 1 to 10 µM, an IC50 [2] of 1 to 10 µM and an IC50 [3] of 1 to 10 µM. The IC50 [4] was > 10 µM, the IC50 [5] was > 10 µM and the IC50 [6] was 1 to 10 µM. It also gave an IC50 [7] of 1 to 10 µM, an IC50 [8] of 1 to 10 µM and an IC50 [9] of 1 to 10 µM.

`CCn1c(-c2cnccc2COC)c2c3cc(ccc31)-c1cc(O)cc(c1)C[C@H](NC(=O)[C@H](C(C)C)N(C)C(=O)CN/C(N)=N/C#N)C(=O)N1CCC[C@H](N1)C(=O)OCC(C)(C)C2` [Compound A62] gave an IC50 [1] of 0.1 to 1 µM, an IC50 [2] of 0.1 to 1 µM and an IC50 [3] of 0.01 to 0.1 µM. For the same compound, the IC50 [4] was 0.1 to 1 µM, the IC50 [5] was 0.1 to 1 µM and the IC50 [6] was 0.1 to 1 µM. For the same compound, the IC50 [7] was 0.1 to 1 µM, the IC50 [8] was 0.1 to 1 µM and the IC50 [9] was > 10 µM.

`CCn1c(-c2cnccc2COC)c2c3cc(ccc31)-c1cc(O)cc(c1)C[C@H](NC(=O)[C@H](C(C)C)N(C)c1cnc(N)[nH]c1=O)C(=O)N1CCC[C@H](N1)C(=O)OCC(C)(C)C2` [Compound A63] gave an IC50 [1] of 1 to 10 µM, an IC50 [2] of 1 to 10 µM and an IC50 [3] of 1 to 10 µM. The IC50 [4] was 1 to 10 µM, the IC50 [5] was > 10 µM and the IC50 [6] was 1 to 10 µM. For the same compound, the IC50 [7] was 1 to 10 µM, the IC50 [8] was 1 to 10 µM and the IC50 [9] was > 10 µM.
